Source: patent US20230102554A1 (GB002, INC., priority 2019, published 2023)

How the values were obtained:
[1] = target: T1, Human PDGFRβ, cytoplasmic domain (GST-PDGFRβ) (Homo sapiens, UniProt P09619); experiment: Human PDGFRβ biochemical inhibition assay (off-chip Mobility Shift Assay)
T1 construct: made in house
How it was run: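 GST-tagged cytoplasmic domain (aa 557-1106) from baculovirus was incubated 1 h at room temperature with compound, CSKtide, ATP at Km and Mg²⁺ in HEPES buffer, pH 7.5. Phosphorylated and unphosphorylated peptide were separated by off-chip mobility shift, and the product ratio P/(P+S) gave percent inhibition.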

[2] = target: T2, Human PDGFRα, cytoplasmic domain (GST-PDGFRα) (Homo sapiens, UniProt P16234); experiment: Human PDGFRα biochemical inhibition assay (off-chip Mobility Shift Assay)
T2 construct: made in house
T2 sequence (P16234 550-1089 T674I): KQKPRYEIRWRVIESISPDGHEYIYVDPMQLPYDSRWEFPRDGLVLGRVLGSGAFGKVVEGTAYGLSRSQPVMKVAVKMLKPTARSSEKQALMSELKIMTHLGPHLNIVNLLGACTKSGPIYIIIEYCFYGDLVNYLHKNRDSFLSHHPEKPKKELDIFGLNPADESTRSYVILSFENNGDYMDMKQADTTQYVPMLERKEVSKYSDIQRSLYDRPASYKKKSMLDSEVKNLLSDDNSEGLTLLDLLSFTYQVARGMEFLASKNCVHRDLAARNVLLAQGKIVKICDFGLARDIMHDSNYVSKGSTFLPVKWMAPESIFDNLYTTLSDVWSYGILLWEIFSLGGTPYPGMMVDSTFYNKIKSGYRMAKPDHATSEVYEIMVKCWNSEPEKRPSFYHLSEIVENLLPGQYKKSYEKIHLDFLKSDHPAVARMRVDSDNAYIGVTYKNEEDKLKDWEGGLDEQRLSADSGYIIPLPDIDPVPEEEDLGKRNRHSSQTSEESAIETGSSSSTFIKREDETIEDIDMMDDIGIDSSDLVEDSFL

T1 sequence (P09619 with tags, fused parts or gaps): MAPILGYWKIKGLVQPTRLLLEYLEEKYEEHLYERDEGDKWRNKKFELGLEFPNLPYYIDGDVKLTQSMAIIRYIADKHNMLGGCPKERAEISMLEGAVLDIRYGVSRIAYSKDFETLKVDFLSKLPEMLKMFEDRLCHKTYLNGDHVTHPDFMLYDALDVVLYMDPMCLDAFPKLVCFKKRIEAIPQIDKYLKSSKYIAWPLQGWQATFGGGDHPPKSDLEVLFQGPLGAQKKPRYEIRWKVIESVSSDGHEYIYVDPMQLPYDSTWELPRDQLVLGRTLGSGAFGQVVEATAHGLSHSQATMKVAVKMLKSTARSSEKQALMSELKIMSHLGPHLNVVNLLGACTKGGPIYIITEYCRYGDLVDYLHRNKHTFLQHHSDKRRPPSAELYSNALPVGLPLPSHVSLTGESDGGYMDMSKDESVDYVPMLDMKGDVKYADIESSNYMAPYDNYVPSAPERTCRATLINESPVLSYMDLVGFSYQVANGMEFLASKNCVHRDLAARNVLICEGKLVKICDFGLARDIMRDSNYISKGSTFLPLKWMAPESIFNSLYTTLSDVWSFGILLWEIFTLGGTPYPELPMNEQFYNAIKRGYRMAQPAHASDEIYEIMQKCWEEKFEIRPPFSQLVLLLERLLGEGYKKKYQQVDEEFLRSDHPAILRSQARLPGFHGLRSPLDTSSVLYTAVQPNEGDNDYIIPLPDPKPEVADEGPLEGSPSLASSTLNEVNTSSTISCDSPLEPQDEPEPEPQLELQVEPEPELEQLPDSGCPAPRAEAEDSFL

Row | Structure (SMILES) | IC50 [1] [nM] | IC50 [2] [nM]
1 | CCn1cc2ncc(N[C@@H](C)c3cccc(NC(=O)Cc4ccc(Cl)cn4)c3)nc2n1 [Compound 681, (S)-2-(5-chloropyridin-2-yl)-N-(3-(1-((2-ethyl-2H-pyrazolo[3,4-b]pyrazin-6-yl)amino)ethyl)phenyl)acetamide] | ≥ 1000 | < 300
2 | CCn1cc2ncc(N[C@@H](C)c3cccc(NC(=O)c4ccc(C(=O)N5CC[C@@H](N)C5)c(C)c4)c3)nc2n1 [Compound 465, 4-((R)-3-aminopyrrolidine-1-carbonyl)-N-(3-((S)-1-((2-ethyl-2H-pyrazolo[3,4-b]pyrazin-6-yl)amino)ethyl)phenyl)-3-methylbenzamide] | ≥ 1000 | < 300
3 | CCn1cc2ncc(N[C@@H](C)c3cccc(NC(=O)Cc4ccc(F)cn4)c3)nc2n1 [Compound 647, (S)-N-(3-(1-((2-ethyl-2H-pyrazolo[3,4-b]pyrazin-6-yl)amino)ethyl)phenyl)-2-(5-fluoropyridin-2-yl)acetamide] | ≥ 1000 | < 300
4 | CCn1cc2ncc(N[C@@H](C)c3cccc(NC(=O)Cc4cccc(F)c4)c3)nc2n1 [Compound 625, (S)-N-(3-(1-((2-ethyl-2H-pyrazolo[3,4-b]pyrazin-6-yl)amino)ethyl)phenyl)-2-(3-fluorophenyl)acetamide] | 300 to 1000 | < 300
5 | CCOc1ncc(C(=O)Nc2cccc([C@H](C)Nc3cnc4cn(CC)nc4n3)c2)s1 [Compound 362, (S)-2-ethoxy-N-(3-(1-((2-ethyl-2H-pyrazolo[3,4-b]pyrazin-6-yl)amino)ethyl)phenyl)thiazole-5-carboxamide] | 300 to 1000 | < 300
6 | CCn1cc2ncc(N[C@@H](C)c3cccc(NC(=O)c4ccc(N5CCN(C)CC5)c(F)c4)c3)nc2n1 [Compound 367, (S)-N-(3-(1-((2-ethyl-2H-pyrazolo[3,4-b]pyrazin-6-yl)amino)ethyl)phenyl)-3-fluoro-4-(4-methylpiperazin-1-yl) benzamide] | ≥ 1000 | 300 to 1000
7 | CCn1cc2ncc(N[C@@H](C)c3cc(NC(=O)Cc4ccc5c(n4)CCCC5)ccc3C)nc2n1 [Compound 728, (S)-N-(3-(1-((2-ethyl-2H-pyrazolo[3,4-b]pyrazin-6-yl)amino)ethyl)-4-methylphenyl)-2-(5,6,7,8-tetrahydroquinolin-2-yl)acetamide] | ≥ 1000 | ≥ 1000
8 | CCn1cc2ncc(N[C@@H](C)c3cccc(NC(=O)Cc4ccccn4)c3)nc2n1 [Compound 645, (S)-N-(3-(1-((2-ethyl-2H-pyrazolo[3,4-b]pyrazin-6-yl)amino)ethyl)phenyl)-2-(pyridin-2-yl)acetamide] | ≥ 1000 | 300 to 1000
9 | Cc1cc(C(=O)Nc2cccc([C@H](C)Nc3cnc4cnn(C)c4n3)c2)ccc1C(=O)OCCN [Compound 266, 2-aminoethyl (S)-2-methyl-4-((3-(1-((1-methyl-1H-pyrazolo[3,4-b]pyrazin-6-yl)amino)ethyl)phenyl)carbamoyl) benzoate] | < 300 | < 300
10 | Cc1cc(C(=O)Nc2cccc([C@H](C)Nc3cnc4cnn(C)c4n3)c2)ccc1CN1CCOCC1 [Compound 209, (S)-3-methyl-N-(3-(1-((1-methyl-1H-pyrazolo[3,4-b]pyrazin-6-yl)amino)ethyl)phenyl)-4-(morpholinomethyl) benzamide] | < 300 | < 300
11 | Cc1cncc(C(=O)Nc2cccc([C@H](C)Nc3cnc4cn(C)nc4n3)c2)c1 [Compound 274, (S)-5-methyl-N-(3-(1-((2-methyl-2H-pyrazolo[3,4-b]pyrazin-6-yl)amino)ethyl)phenyl)nicotinamide] | ≥ 1000 | < 300
12 | C[C@H](Nc1cnc2cnn(C)c2n1)c1cccc(NC(=O)c2cnc3c(ccn3C)c2)c1 [Compound 169, (S)-1-methyl-N-(3-(1-((1-methyl-1H-pyrazolo[3,4-b]pyrazin-6-yl)amino)ethyl)phenyl)-1H-pyrrolo[2,3-b] pyridine-5-carboxamide] | < 300 | < 300

Now from value to compound:

Row | IC50 [1] [nM] | IC50 [2] [nM] | Structure (SMILES)
13 | < 300 | < 300 | Cc1cc(C(=O)Nc2cccc([C@H](C)Nc3cnc4cnn(C)c4n3)c2)cnc1N1CCSCC1 [Compound 260, (S)-5-methyl-N-(3-(1-((1-methyl-1H-pyrazolo[3,4-b]pyrazin-6-yl)amino)ethyl)phenyl)-6-thiomorpholinonicotinamide]
14 | < 300 | < 300 | CCn1cc2ncc(N[C@@H](C)c3cccc(NC(=O)c4ccc(C(F)(F)F)c(C)c4)c3)nc2n1 [Compound 439, (S)-N-(3-(1-((2-ethyl-2H-pyrazolo[3,4-b]pyrazin-6-yl)amino)ethyl)phenyl)-3-methyl-4-(trifluoromethyl)benzamide]
15 | < 300 | < 300 | CCn1cc2ncc(N[C@@H](C)c3cccc(NC(=O)c4ccc(CN5CCN(C)C(=O)C5)c(C)c4)c3)nc2n1 [Compound 479, (S)-N-(3-(1-((2-ethyl-2H-pyrazolo[3,4-b]pyrazin-6-yl)amino)ethyl)phenyl)-3-methyl-4-((4-methyl-3-oxopiperazin-1-yl)methyl)benzamide]
16 | < 300 | < 300 | CCn1cc2ncc(N[C@@H](C)c3cc(NC(=O)Cc4ccccc4F)ccc3C)nc2n1 [Compound 700, (S)-N-(3-(1-((2-ethyl-2H-pyrazolo[3,4-b]pyrazin-6-yl)amino)ethyl)-4-methylphenyl)-2-(2-fluorophenyl)acetamide]
17 | < 300 | < 300 | Cc1c[nH]c2ncc(N[C@@H](C)c3cccc(NC(=O)c4ccc(C(F)F)s4)c3)nc12 [Compound 560, (S)-5-(difluoromethyl)-N-(3-(1-((7-methyl-5H-pyrrolo[2,3-b]pyrazin-2-yl)amino)ethyl)phenyl)thiophene-2-carboxamide]
18 | < 300 | < 300 | C[C@H](Nc1cnc2cn[nH]c2n1)c1cccc(NC(=O)c2cncc(C3CCC3)c2)c1 [Compound 96, (S)-N-(3-(1-((1H-pyrazolo[3,4-b]pyrazin-6-yl)amino)ethyl)phenyl)-5-cyclobutylnicotinamide]
19 | < 300 | < 300 | CCn1cc2ncc(N[C@@H](C)c3cc(NC(=O)c4cnc(C)s4)ccc3F)nc2n1 [Compound 307, (S)-N-(3-(1-((2-ethyl-2H-pyrazolo[3,4-b]pyrazin-6-yl)amino)ethyl)-4-fluorophenyl)-2-methylthiazole-5-carboxamide]
20 | < 300 | < 300 | CCn1cc2ncc(N[C@@H](C)c3cccc(NC(=O)c4cnc(OC(C)C)c(Cl)c4)c3)nc2n1 [Compound 354, (S)-5-chloro-N-(3-(1-((2-ethyl-2H-pyrazolo[3,4-b]pyrazin-6-yl)amino)ethyl)phenyl)-6-isopropoxynicotinamide]
21 | < 300 | < 300 | Cc1n[nH]c2ncc(N[C@@H](C)c3cccc(NC(=O)c4cc(C(F)(F)F)nn4C)c3)nc12 [Compound 548, (S)-1-methyl-N-(3-(1-((3-methyl-1H-pyrazolo[3,4-b]pyrazin-5-yl)amino)ethyl)phenyl)-3-(trifluoromethyl)-1H-pyrazole-5-carboxamide]
22 | < 300 | < 300 | CCn1cc2ncc(N[C@@H](C)c3cccc(NC(=O)c4ccc(CN5CCOCC5)c(Cl)c4)c3)nc2n1 [Compound 416, (S)-3-chloro-N-(3-(1-((2-ethyl-2H-pyrazolo[3,4-b]pyrazin-6-yl)amino)ethyl)phenyl)-4-(morpholinomethyl)benzamide]
23 | < 300 | < 300 | CCn1cc2ncc(N[C@@H](C)c3cccc(NC(=O)c4cnc(N5CCCC5)c(C)c4)c3)nc2n1 [Compound 323, (S)-N-(3-(1-((2-ethyl-2H-pyrazolo[3,4-b]pyrazin-6-yl)amino)ethyl)phenyl)-5-methyl-6-(pyrrolidin-1-yl)nicotinamide]
24 | < 300 | < 300 | CCn1cc2ncc(N[C@@H](C)c3cc(NC(=O)Cc4cc(Cl)ccn4)ccc3C)nc2n1 [Compound 677, (6)-2-(4-chloropyridin-2-yl)-N-(3-(1-((2-ethyl-2H-pyrazolo[3,4-b]pyrazin-6-yl)amino)ethyl)-4-methylphenyl)acetamide]
